Experimental data reported in US5438048A, “Methylenebisphosphonic acid derivatives” (Leiras Oy, priority 1990, dated 1995).

Key:
[1] = Binding to hydroxyapatite (effect of bisphosphonates and their derivatives on hydroxyapatite)
[2] = Inhibition of hydroxyapatite growth (calcium phosphate crystal formation and precipitation inhibiting activity); format: biochemical; design: key to the marks not given beside the values; conditions: at 100 μM
mouse calvaria = assay: Parathyroid hormone stimulated bone resorption inhibition activity in vitro in mouse calvaria; format: cell-based
Protocol: (§1) In addition, the parathyroid hormone stimulated bone resorption inhibition activity in vitro in mouse calvaria, as well as inhibition of retinoid induced bone resorption in thyroparathyroidectomised rats in vivo were determined (Reynolds & Dingle (Calc Tiss Res 1970; 4:339, and Trechsel et al. (J Clin Invest 1987; 80:1679)) (Table 2).

[3] = test system: retinoid induced bone resorption; assay: Inhibition of retinoid induced bone resorption in thyroparathyroidectomised rats in vivo; conditions: 150 μmole/kg
Protocol: as §1

Row | SMILES | Ki [1] | Inhibition of growth [2] | Inhibition of resorption (%) (mouse calvaria; 100 μm) | Inhibition of resorption (%) (mouse calvaria; 1000 μm) | Inhibition of resorption (%) [3]
1 | CC(C)OP(=O)(O)C(C)(O)P(=O)(O)O (stereo not shown) [(1-Hydroxyethylidene)bisphosphonic acid monoisopropyl ester] | 7.3 µM | +++ |  |  | 
2 | CCCCC(O)(P(=O)(O)O)P(=O)(O)O [(1-Hydroxypentylidene)bisphosphonate, (1-Hydroxypentylidene)-bisphosphonate, reference compound] |  |  | 56% |  | 
3 | CCCCC(O)(P(=O)(O)O)P(=O)(O)OC(C)C (stereo not shown) [(1-hydroxypentylidene)bisphosphonic acid monoisopropyl ester] | 15.4 µM | ++ |  |  | 
4 | CCCCC(O)(P(=O)(O)O)P(=O)(O)OC (stereo not shown) [(1-hydroxypentylidene)bisphosphonic acid monomethyl ester] | 11.8 µM | +++ | 7% | 47% | 52%
5 | O=P(O)(O)C(Cl)(Cl)P(=O)(O)O [Clodronate, reference compound] | 1.3 µM | +++ |  |  | 
6 | CC(O)(P(=O)(O)O)P(=O)(O)O [Etidronate, reference compound] | 0.9 µM |  |  |  | 
